Assay results as given in ChEMBL document CHEMBL1127015, “Centrally acting serotonergic and dopaminergic agents. 1. Synthesis and structure-activity relationships of 2,3,3a,4,5,9b-hexahydro-1H-benz[e]indole derivatives” (J Med Chem, 1993).
pIC50, pKi: −log10 of the molar value. Where “and” joins values, the source holds several entries; their conditions need not be identical. Equal entries are not always repeated.

Key:
Mus musculus [1] = assay: Antagonism of apomorphine in reserpinized mice when a dose of 4 micro mol/kg is administered intraperitoneally; type: functional
Mus musculus [2] = assay: Antagonism of apomorphine effects for 10-20 minutes in reserpinized mice following 0.4 umol/kg i.p.; type: functional
Mus musculus [3] = assay: Ability to stimulate dopaminergic systems by effect on locomotor activity in reserpinized mice when a dose of 4 micro mol/kg is administered intraperitoneally; type: functional
Mus musculus [4] = assay: Antagonism of apomorphine effects for 0-10 minutes in reserpinized mice following 0.4 umol/kg i.p.; type: functional; set-up: unit not given beside the values
D(2) dopamine receptor [5] = biological target: T1, D(2) dopamine receptor (Rattus norvegicus, UniProt P61169); assay: Inhibitory concentration against [3H]raclopride-labeled dopamine receptor D2 in rat striatum; type: tissue-based
T1 sequence (P61169 whole entry): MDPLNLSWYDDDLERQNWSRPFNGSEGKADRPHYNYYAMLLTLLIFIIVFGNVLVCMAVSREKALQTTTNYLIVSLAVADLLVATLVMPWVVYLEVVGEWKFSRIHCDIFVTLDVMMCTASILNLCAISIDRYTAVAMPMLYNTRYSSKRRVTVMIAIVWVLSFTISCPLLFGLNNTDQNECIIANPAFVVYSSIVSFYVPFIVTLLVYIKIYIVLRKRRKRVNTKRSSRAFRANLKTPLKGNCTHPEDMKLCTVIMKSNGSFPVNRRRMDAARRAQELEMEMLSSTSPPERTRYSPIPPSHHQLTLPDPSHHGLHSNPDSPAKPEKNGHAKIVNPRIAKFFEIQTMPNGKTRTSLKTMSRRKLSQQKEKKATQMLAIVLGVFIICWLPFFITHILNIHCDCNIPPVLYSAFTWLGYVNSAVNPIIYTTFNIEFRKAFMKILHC

Mus musculus [6] = assay: Antagonism of apomorphine for 0-10 minutes in reserpinized mice when a dose of 4 micro mol/kg is administered intraperitoneally; type: functional
Mus musculus [7] = assay: Increase in locomotor activity in reserpinized mice following 0.4 umol/kg i.p.; type: functional
Mus musculus [8] = assay: Antagonism of apomorphine for 10-20 minutes in reserpinized mice when a dose of 4 micro mol/kg is administered intraperitoneally; type: functional
Mus musculus [9] = assay: Antagonism of apomorphine effects in reserpinized mice following 0.4 umol/kg i.p.; type: functional
Mus musculus [10] = assay: Antagonism of apomorphine for 0-10 minutes in reserpinized mice when a dose of 0.4 micro mol/kg is administered intraperitoneally (*,p<0.05); type: functional
D(2) dopamine receptor [11] = biological target: T1, D(2) dopamine receptor; assay: Compound was evaluated for the binding affinity against [3H]U-86,170-labeled dopamine receptor D2 in cloned CHO cells; type: cell-based
Mus musculus [12] = assay: Effective dose on hypothermia in mouse when administered through peroral route; type: functional; settings: po
Mus musculus [13] = assay: Antagonism of apomorphine in reserpinized mice when a dose of 36 micro mol/kg is administered intraperitoneally; type: functional
Mus musculus [14] = assay: Maximum decrease in temperature when compound is administered subcutaneously; type: functional
Mus musculus [15] = assay: Effective dose on hypothermia in mouse when administered subcutaneously; type: functional; settings: sc
Mus musculus [16] = assay: Antagonism of apomorphine for 10-20 minutes in reserpinized mice when a dose of 36 micro mol/kg is administered intraperitoneally; type: functional
Mus musculus [17] = assay: Antagonism of apomorphine for 0-10 minutes in reserpinized mice when a dose of 36 micro mol/kg is administered intraperitoneally; type: functional
Mus musculus [18] = assay: Antagonism of apomorphine in reserpinized mice when a dose of 3.6 micro mol/kg is administered intraperitoneally; type: functional
Mus musculus [19] = assay: Antagonism of apomorphine for 10-20 minutes in reserpinized mice when a dose of 3.6 micro mol/kg is administered intraperitoneally; type: functional
Rattus norvegicus [20] = assay: Inhibition of firing rates of serotonergic neurons in the dorsal raphe nucleus by intravenous injection in rats; type: functional
Mus musculus [21] = assay: Antagonism of apomorphine for 0-10 minutes in reserpinized mice when a dose of 3.6 micro mol/kg is administered intraperitoneally; type: functional
Felis catus [22] = assay: Maximum decrease of sympathetic nerve activity (SND) in anesthetized cat; type: functional; set-up: scale not given: the % may be the effect or the level left
Rattus norvegicus [23] = assay: Effect on the synthesis rates of dopamine (DOPA accumulation) in the rat ventral limbic brain region at 3.6 micro mol/kg; type: functional, Limbic system
Felis catus [24] = assay: Maximum decrease of arterial blood pressure at sympathetic nerve activity (SND) in anesthetized cat has been observed following 1 mg/kg dose; type: functional; set-up: scale not given: the % may be the effect or the level left
Rattus norvegicus [25] = species on record: Rattus norvegicus; assay: Effect on the synthesis rates of serotonin (5-HTP accumulation) in the rat ventral limbic brain region at 3.6uMkg.; type: functional, Limbic system
Mus musculus [26] = assay: Ability to stimulate dopaminergic systems by effect on locomotor activity in reserpinized mice when a dose of 3.6 micro mol/kg is administered intraperitoneally; type: functional
Mus musculus [27] = assay: Maximum decrease in temperature when compound is administered through peroral route; type: functional
Mus musculus [28] = assay: Ability to stimulate dopaminergic systems by effect on locomotor activity in reserpinized mice when a dose of 36 micro mol/kg is administered intraperitoneally; type: functional
D(2) dopamine receptor [29] = biological target: T2, D(2) dopamine receptor (Homo sapiens, UniProt P14416); assay: Intrinsic activity from GTP shift using membranes from CHO cells transfected with mammalian dopamine receptor D2.; type: cell membranes
T2 sequence (P14416 whole entry): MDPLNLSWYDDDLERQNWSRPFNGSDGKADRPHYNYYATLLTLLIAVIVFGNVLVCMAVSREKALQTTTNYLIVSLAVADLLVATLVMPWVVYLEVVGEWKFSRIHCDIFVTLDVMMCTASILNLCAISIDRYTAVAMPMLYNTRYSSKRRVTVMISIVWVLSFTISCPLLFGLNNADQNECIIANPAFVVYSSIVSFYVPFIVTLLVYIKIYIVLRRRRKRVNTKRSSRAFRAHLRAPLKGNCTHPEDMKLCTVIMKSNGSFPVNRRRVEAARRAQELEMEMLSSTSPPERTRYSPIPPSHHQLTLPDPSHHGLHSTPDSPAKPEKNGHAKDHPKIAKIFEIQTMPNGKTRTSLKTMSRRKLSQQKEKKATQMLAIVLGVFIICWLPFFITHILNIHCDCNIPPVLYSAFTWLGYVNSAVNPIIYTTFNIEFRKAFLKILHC

Rattus norvegicus [30] = species on record: Rattus norvegicus; assay: Effect on the synthesis rates of serotonin (5-HTP accumulation) in the rat ventral limbic brain region at 3.6uMkg; type: functional, Limbic system
D(2) dopamine receptor [31] = biological target: T2, D(2) dopamine receptor; assay: Binding affinity against [3H]U-86,170-labeled dopamine receptor D2 in cloned CHO cells; type: cell-based
Mus musculus [32] = assay: Time of effect in the isolation-induced aggression behavioral assay in the mouse when a dose of 0.0 micro mol/kg is administered perorally; type: functional
Mus musculus [33] = assay: Time of effect in the isolation-induced aggression behavioral assay in the mouse when a dose of 11 micro mol/kg is administered perorally; type: functional
Mus musculus [34] = assay: Time of effect in the isolation-induced aggression behavioral assay in the mouse when a dose of 36 micro mol/kg is administered perorally; type: functional
Mus musculus [35] = assay: Time of effect in the face-to-face behavioral assay in the mouse when a dose of 36 micro mol/kg is administered perorally; type: functional
Mus musculus [36] = assay: Time of effect in the isolation-induced aggression behavioral assay in the mouse when a dose of 3.6 micro mol/kg is administered perorally; type: functional
Rattus norvegicus [37] = assay: Inhibition of firing rates of dopaminergic neurons in the substantia nigra pars compacta by intravenous injection in rats.; type: functional; settings: Rattus norvegicus, Substantia nigra pars compacta, iv; read-out: ED50
Rattus norvegicus [38] = assay: Inhibition of firing rates of serotonergic neurons in the dorsal raphe nucleus by intravenous injection in rats.; type: functional
Mus musculus [39] = assay: Time of effect in the face-to-face behavioral assay in the mouse when a dose of 0.4 micro mol/kg is administered perorally; type: functional
Mus musculus [40] = assay: Time of effect in the face-to-face behavioral assay in the mouse when a dose of 3.6 micro mol/kg is administered perorally; type: functional
Mus musculus [41] = assay: Time of effect in the face-to-face behavioral assay in the mouse when a dose of 0.0 micro mol/kg is administered perorally; type: functional

| Structure (SMILES) | Locomotor activity (Mus musculus [2]) | Locomotor activity (Mus musculus [4]) | Locomotor activity (Mus musculus [7]) | Locomotor activity (Mus musculus [9]) | Locomotor activity (Mus musculus [13]) | Max temperature decrease (Mus musculus [14]) | ED50 (Mus musculus [15]) [µmol/kg] | Locomotor activity (Mus musculus [16]) | Locomotor activity (Mus musculus [17]) | Locomotor activity (Mus musculus [18]) | Locomotor activity (Mus musculus [19]) | Locomotor activity (Mus musculus [21]) | Control (Felis catus [22]) [%] | Control (Felis catus [24]) [%] | Control (Rattus norvegicus [25]) [%] | Locomotor activity (Mus musculus [26]) | Locomotor activity (Mus musculus [28]) | Intrinsic activity (D(2) dopamine receptor [29]) [%] | pKi (D(2) dopamine receptor [31]) | other results |
| --- | --- | --- | --- | --- | --- | --- | --- | --- | --- | --- | --- | --- | --- | --- | --- | --- | --- | --- | --- | --- |
| CCCN1CC[C@@H]2c3ccccc3CC[C@H]21 (racemic) | 61 | 41 | 22 | 55 | – | – | – | – | – | – | – | – | – | – | – | – | – | – | – | Locomotor activity (Mus musculus [1]): 48; Locomotor activity (Mus musculus [3]): 15; pIC50 (D(2) dopamine receptor [5]): < 6.00; Locomotor activity (Mus musculus [6]): 22; Locomotor activity (Mus musculus [8]): 46 |
| CCCN1CC[C@H]2c3ccccc3CC[C@H]21 (racemic) | 76 | – | 15 | 128 | – | – | – | – | – | – | – | – | – | – | – | – | – | – | – | Locomotor activity (Mus musculus [10]): 56; pKi (D(2) dopamine receptor [11]): 6.26 |
| C=CCN1CC[C@H]2c3c(cccc3OC)CC[C@H]21 (racemic) | 94 | 96 | 6 | 55 | 4 | 4.2 | 8.2 | 45 | 54 | 6 | 94 | 121 | 189 | 59 | -52 | 37 | 70 | – | – | ED50 (Mus musculus [12]): 101 µmol/kg; ED50 (Rattus norvegicus [20]): 0.04 µmol/kg; Control (Rattus norvegicus [23]): 48%; Max temperature decrease (Mus musculus [27]): 3.6 |
| C=CCN1CC[C@@H]2c3c(cccc3OC)CC[C@H]21 (racemic) | 65 | 65 | 36 | 140 | 5 | 4.5 | 40 | 32 | 40 | 30 | 57 | 65 | – | – | -28 | 11 | 48 | 0 | 8.07 | Control (Rattus norvegicus [30]): 158% |
| C=CCN1CCC2c3c(cccc3OC)CC[C@H]21 (single isomer, unassigned; (-)) | 45 | 29 | 7 | 50 | 11 | – | – | 18 | 24 | 14 | 49 | 52 | 385 | 55 | – | 79 | 52 | 24 | 8.17 | Time (Mus musculus [32]): 18 s and 27 s; Time (Mus musculus [33]): 40 s; Time (Mus musculus [34]): 236 s; Time (Mus musculus [35]): 1.4 s; Time (Mus musculus [36]): 85 s; ED50 (Rattus norvegicus [37]): 0.04 µmol/kg; ED50 (Rattus norvegicus [38]): 0.007 µmol/kg; Time (Mus musculus [39]): 0.9 s; Time (Mus musculus [40]): 1.3 s; Time (Mus musculus [41]): 1.2 s |
